Test results from patent US10035790B2, “RORγ modulators” (BRISTOL-MYERS SQUIBB COMPANY, priority 2012, dated 2018).

The compounds below were run against T1, ligand binding domain of human RORγ (A262-S507) (Homo sapiens, UniProt P51449) (assay: General RORγ SPA binding assay (competition with [3H]25-hydroxycholesterol)). Details: RORγ SPA binding assay, inhibition of [3H]25-hydroxycholesterol binding; read-out: IC50.
T1 construct: made in house; host or cells: E. coli
T1 sequence (P51449 262-507): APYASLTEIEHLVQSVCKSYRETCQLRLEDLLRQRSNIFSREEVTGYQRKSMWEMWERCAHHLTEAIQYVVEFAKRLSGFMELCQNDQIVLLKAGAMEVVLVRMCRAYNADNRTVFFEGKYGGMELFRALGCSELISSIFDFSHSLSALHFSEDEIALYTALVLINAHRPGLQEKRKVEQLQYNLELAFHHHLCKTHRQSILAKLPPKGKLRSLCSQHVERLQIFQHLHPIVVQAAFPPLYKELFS
Method: Example 2 General RORγ SPA Binding Assay
The binding of potential ligands to RORγ is measured by competition with [^3H]25-hydroxycholesterol using a scintillation proximity assay (SPA) binding assay. The ligand binding domain of human RORγ (A262-S507) with an N-terminal His tag is expressed in E. coli and purified using nickel affinity chromotography. 50 nM RORγ (A262-S507) is incubated with test compound at varying concentrations for 15 min at room temperature in PBS buffer containing 0.5% fatty acid free BSA. […] of [^3H]25-hydroxycholesterol is then added, and the reaction is incubated for 15 min. 4 mg/mL of Ysi Copper HIS-TAG SPA Beads (Perkin Elmer) are added, and the mixture is incubated for 30 min. The reaction is read on a MicroBeta Trilux scintillation plate reader (Perkin Elmer). IC50 values are determined from the percentage inhibition of [^3H]25-hydroxycholesterol binding.

Question: For `Cc1cc(C)cc(CNC(=O)c2cnc(C)nc2C2CCN(C(=O)c3c(F)cccc3Cl)CC2)c1` [Compound A8, 4-(1-(2-chloro-6-fluorobenzoyl)piperidin-4-yl)-N-(3,5-dimethylbenzyl)-2-methylpyrimidine-5-carboxamide], which IC50 is on record?
Answer: 29.4 nM

Question: Which IC50 does the source give for `Cc1cc(C)cc(CNC(=O)c2cnc(C)nc2C2CCN(C(=O)Cc3ccccc3OC(F)(F)F)CC2)c1` [Compound A9, N-(3,5-dimethylbenzyl)-2-methyl-4-(1-(2-(2-(trifluoromethoxy)phenyl)acetyl)piperidin-4-yl)pyrimidine-5-carboxamide] here?
Answer: 31.6 nM

Question: Which IC50 does the source give for `COc1ccccc1CC(=O)N1CCC(c2nc(C)ncc2C(=O)NCc2cc(C)cc(C)c2)CC1` [Compound A10, N-(3,5-dimethylbenzyl)-4-(1-(2-(2-methoxyphenyl)acetyl)piperidin-4-yl)-2-methylpyrimidine-5-carboxamide] here?
Answer: 33.1 nM

Question: For `Cc1cc(C)cc(CNC(=O)c2cnc(C)nc2C2CCN(C(=O)Cc3ccccc3C)CC2)c1` [Compound A11, N-(3,5-dimethylbenzyl)-2-methyl-4-(1-(2-(o-tolyl)acetyl)piperidin-4-yl)pyrimidine-5-carboxamide], which IC50 is on record?
Answer: 49 nM

Question: With `Cc1cc(C)cc(CNC(=O)c2cnc(C)nc2C2CCN(C(=O)Cc3ccccc3F)CC2)c1` [Compound A12, N-(3,5-dimethylbenzyl)-4-(1-(2-(2-fluorophenyl)acetyl)piperidin-4-yl)-2-methylpyrimidine-5-carboxamide] as the compound, how does the IC50 read?
Answer: 50 nM

Question: Which IC50 does the source give for `Cc1ncc(C(=O)NCc2ccc(Cl)c(Cl)c2)c(C2CCN(C(=O)Cc3c(F)ccc(F)c3F)CC2)n1` [Compound A13, N-(3,4-dichlorobenzyl)-2-methyl-4-(1-(2-(2,3,6-trifluorophenyl)acetyl)piperidin-4-yl)pyrimidine-5-carboxamide] here?
Answer: 52 nM

Question: For `Cc1cc(C)cc(CNC(=O)c2cnc(C)nc2C2CCN(C(=O)Cc3cc(F)ccc3F)CC2)c1` [Compound A14, 4-(1-(2-(2,5-difluorophenyl)acetyl)piperidin-4-yl)-N-(3,5-dimethylbenzyl)-2-methylpyrimidine-5-carboxamide], which IC50 is on record?
Answer: 66 nM

Question: For `Cc1cc(C)cc(CNC(=O)c2cnc(C)nc2C2CCN(C(=O)Cc3ccccc3[N+](=O)[O-])CC2)c1` [Compound A15, N-(3,5-dimethylbenzyl)-2-methyl-4-(1-(2-(2-nitrophenyl)acetyl)piperidin-4-yl)pyrimidine-5-carboxamide], which IC50 is on record?
Answer: 70 nM

Question: For `Cc1cc(C)cc(CNC(=O)c2cnc(C)nc2C2CCN(C(=O)[C@H](C)c3ccccc3)CC2)c1` [Compound A16, (R)-N-(3,5-dimethylbenzyl)-2-methyl-4-(1-(2-phenylpropanoyl)piperidin-4-yl)pyrimidine-5-carboxamide], which IC50 is on record?
Answer: 89 nM

Question: How did the IC50 turn out when `Cc1cc(C)cc(CNC(=O)c2cnc(C)nc2C2CCN(C(=O)Cc3cccc(F)c3F)CC2)c1` [Compound A18, 4-(1-(2-(2,3-difluorophenyl)acetyl)piperidin-4-yl)-N-(3,5-dimethylbenzyl)-2-methylpyrimidine-5-carboxamide] was run?
Answer: 124 nM

Question: `Cc1cc(C)cc(CNC(=O)c2cnc(C)nc2C2CCN(C(=O)Cc3cccc4ccccc34)CC2)c1` [Compound A19, N-(3,5-dimethylbenzyl)-2-methyl-4-(1-(2-(naphthalen-1-yl)acetyl)piperidin-4-yl)pyrimidine-5-carboxamide] was tested. Which IC50 did it give?
Answer: 155 nM

Question: With `Cc1ncc(C(=O)NCCOc2ccccc2)c(C2CCN(C(=O)Cc3c(F)cccc3F)CC2)n1` [Compound A20, 4-(1-(2-(2,6-difluorophenyl)acetyl)piperidin-4-yl)-2-methyl-N-(2-phenoxyethyl)pyrimidine-5-carboxamide] as the compound, how does the IC50 read?
Answer: 158 nM

Question: Which IC50 does the source give for `O=C(NCc1ccc(Cl)c(Cl)c1)c1cnc(C(F)(F)F)nc1C1CCN(C(=O)Cc2c(F)cccc2F)CC1` [Compound A21, N-(3,4-dichlorobenzyl)-4-(1-(2-(2,6-difluorophenyl)acetyl)piperidin-4-yl)-2-(trifluoromethyl)pyrimidine-5-carboxamide] here?
Answer: 209 nM

Question: Which IC50 does the source give for `Cc1cc(C)cc(CNC(=O)c2cnc(C)nc2C2CCN(C(=O)Cc3cccc(F)c3)CC2)c1` [Compound A22, N-(3,5-dimethylbenzyl)-4-(1-(2-(3-fluorophenyl)acetyl)piperidin-4-yl)-2-methylpyrimidine-5-carboxamide] here?
Answer: 235 nM

Question: For `Cc1cc(C)cc(CNC(=O)c2cnc(C)nc2C2CCN(C(=O)c3ccccc3F)CC2)c1` [Compound A23, N-(3,5-dimethylbenzyl)-4-(1-(2-fluorobenzoyl)piperidin-4-yl)-2-methylpyrimidine-5-carboxamide], which IC50 is on record?
Answer: 254 nM

Question: For `Cc1cc(C)cc(CNC(=O)c2cnc(C)nc2C2CCN(C(=O)c3ccccc3Cl)CC2)c1` [Compound A24, 4-(1-(2-chlorobenzoyl)piperidin-4-yl)-N-(3,5-dimethylbenzyl)-2-methylpyrimidine-5-carboxamide], which IC50 is on record?
Answer: 215 nM

Question: How did the IC50 turn out when `Cc1cc(C)cc(CNC(=O)c2cnc(C)nc2C2CCN(C(=O)Cc3ccccc3)CC2)c1` [Compound A25, N-(3,5-dimethylbenzyl)-2-methyl-4-(1-(2-phenylacetyl)piperidin-4-yl) pyrimidine-5-carboxamide] was run?
Answer: 267 nM

Question: With `Cc1cc(C)cc(CNC(=O)c2cnc(C)nc2C2CCN(C(=O)[C@@H](C)c3ccccc3)CC2)c1` [Compound A26, (S)-N-(3,5-dimethylbenzyl)-2-methyl-4-(1-(2-phenylpropanoyl)piperidin-4-yl)pyrimidine-5-carboxamide] as the compound, how does the IC50 read?
Answer: 446 nM

Question: For `Cc1cc(C)cc(CNC(=O)c2cnc(C)nc2C2CCN(C(=O)Cc3cc(F)cc(F)c3)CC2)c1` [Compound A27, 4-(1-(2-(3,5-difluorophenyl)acetyl)piperidin-4-yl)-N-(3,5-dimethylbenzyl)-2-methylpyrimidine-5-carboxamide], which IC50 is on record?
Answer: 720 nM

Question: For `CC(C)c1ncc(C(=O)NCc2ccc(Cl)c(Cl)c2)c(C2CCN(C(=O)Cc3c(F)cccc3F)CC2)n1` [Compound A28, N-(3,4-dichlorobenzyl)-4-(1-(2-(2,6-difluorophenyl)acetyl)piperidin-4-yl)-2-isopropylpyrimidine-5-carboxamide], which IC50 is on record?
Answer: 1030 nM

Question: With `Cc1cc(C)cc(CNC(=O)c2cnc(C)nc2C2CCN(C(=O)Cc3ccc(F)cc3)CC2)c1` [Compound A29, N-(3,5-dimethylbenzyl)-4-(1-(2-(4-fluorophenyl)acetyl)piperidin-4-yl)-2-methylpyrimidine-5-carboxamide] as the compound, how does the IC50 read?
Answer: 1090 nM

Question: `Cc1cc(C)cc(CNC(=O)c2cnc(C)nc2C2CCN(C(=O)Cc3cccc(C)c3)CC2)c1` [Compound A30, N-(3,5-dimethylbenzyl)-2-methyl-4-(1-(2-(m-tolyl)acetyl)piperidin-4-yl) pyrimidine-5-carboxamide] was tested. Which IC50 did it give?
Answer: 1450 nM

Question: Which IC50 does the source give for `Cc1cc(C)cc(CNC(=O)c2cnc(C)nc2C2CCN(C(=O)C3(c4ccccc4F)CCCC3)CC2)c1` [Compound A31] here?
Answer: 1630 nM

Question: With `Cc1cc(C)cc(CNC(=O)c2cnc(C)nc2C2CCN(C(=O)C3(c4ccccc4)CC3)CC2)c1` [Compound A32, N-(3,5-dimethylbenzyl)-2-methyl-4-(1-(1-phenylcyclopropanecarbonyl)piperidin-4-yl)pyrimidine-5-carboxamide] as the compound, how does the IC50 read?
Answer: 1690 nM

Question: How did the IC50 turn out when `Cc1cc(C)cc(CNC(=O)c2cnc(C)nc2C2CCN(C(=O)c3ncccc3Cl)CC2)c1` [Compound A33, 4-(1-(3-chloropicolinoyl)piperidin-4-yl)-N-(3,5-dimethylbenzyl)-2-methylpyrimidine-5-carboxamide] was run?
Answer: 1950 nM

Question: How did the IC50 turn out when `Cc1cc(C)cc(CNC(=O)c2cnc(C)nc2C2CCN(C(=O)Cc3ccc(F)c(F)c3)CC2)c1` [Compound A34, 4-(1-(2-(3,4-difluorophenyl)acetyl)piperidin-4-yl)-N-(3,5-dimethylbenzyl)-2-methylpyrimidine-5-carboxamide] was run?
Answer: 2690 nM

Question: For `Cc1cc(C)cc(CNC(=O)c2cnc(C)nc2C2CCN(C(=O)C(C)(C)c3ccccc3)CC2)c1` [Compound A35, N-(3,5-dimethylbenzyl)-2-methyl-4-(1-(2-methyl-2-phenylpropanoyl)piperidin-4-yl)pyrimidine-5-carboxamide], which IC50 is on record?
Answer: 2970 nM

Question: For `CC(C)c1ncc(C(=O)NCc2ccc(Cl)c(Cl)c2)c(C2CCN(C(=O)Cc3ccccc3F)CC2)n1` [Compound A36, N-(3,4-dichlorobenzyl)-4-(1-(2-(2-fluorophenyl)acetyl)piperidin-4-yl)-2-isopropylpyrimidine-5-carboxamide], which IC50 is on record?
Answer: 3330 nM

Question: For `O=C(NCc1ccc(Cl)c(Cl)c1)c1cnc(-c2ccccc2)nc1C1CCN(C(=O)Cc2c(F)cccc2F)CC1` [Compound A37, N-(3,4-dichlorobenzyl)-4-(1-(2-(2,6-difluorophenyl)acetyl)piperidin-4-yl)-2-phenylpyrimidine-5-carboxamide], which IC50 is on record?
Answer: 4200 nM

Question: With `Cc1cc(C)cc(CNC(=O)c2cnc(C)nc2C2CCN(C(=O)Cc3ccccn3)CC2)c1` [Compound A38, N-(3,5-dimethylbenzyl)-2-methyl-4-(1-(2-(pyridin-2-yl)acetyl)piperidin-4-yl)pyrimidine-5-carboxamide] as the compound, how does the IC50 read?
Answer: 5310 nM

Question: With `COc1cccc(CC(=O)N2CCC(c3nc(C)ncc3C(=O)NCc3cc(C)cc(C)c3)CC2)c1` [Compound A39, N-(3,5-dimethylbenzyl)-4-(1-(2-(3-methoxyphenyl)acetyl)piperidin-4-yl)-2-methylpyrimidine-5-carboxamide] as the compound, how does the IC50 read?
Answer: 5450 nM
